Values joined by “and” are separate entries in the source; they are usually repeats but may differ in a detail not shown here. Identical values can stand only once.
Assays:
[1] = molecular target: T1, RIPK1 (Homo sapiens, UniProt Q13546); experiment: RIPK1 kinase assay, ADP-Glo assay; format: biochemical
T1 sequence (Q13546 1-671): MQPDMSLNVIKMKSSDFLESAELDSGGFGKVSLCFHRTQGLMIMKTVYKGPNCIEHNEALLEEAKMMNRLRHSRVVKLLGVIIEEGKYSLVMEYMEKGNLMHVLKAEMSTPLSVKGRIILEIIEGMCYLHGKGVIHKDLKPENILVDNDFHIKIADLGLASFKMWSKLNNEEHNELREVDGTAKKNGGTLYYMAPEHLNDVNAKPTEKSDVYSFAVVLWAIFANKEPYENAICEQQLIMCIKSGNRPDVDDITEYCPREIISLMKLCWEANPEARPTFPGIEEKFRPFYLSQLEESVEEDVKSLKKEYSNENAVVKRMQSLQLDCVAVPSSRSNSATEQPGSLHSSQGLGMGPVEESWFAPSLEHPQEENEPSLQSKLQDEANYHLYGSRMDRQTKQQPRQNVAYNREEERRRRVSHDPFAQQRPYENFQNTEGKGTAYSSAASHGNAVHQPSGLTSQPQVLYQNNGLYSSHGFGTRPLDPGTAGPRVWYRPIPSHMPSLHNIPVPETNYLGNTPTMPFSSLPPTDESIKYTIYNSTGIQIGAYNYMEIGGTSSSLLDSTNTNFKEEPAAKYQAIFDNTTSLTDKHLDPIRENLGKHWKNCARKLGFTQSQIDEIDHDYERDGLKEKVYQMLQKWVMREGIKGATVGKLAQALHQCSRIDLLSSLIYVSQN

[2] = system: HT29 cells; experiment: Dual staining with CytoCalcein Violet 450 and 7-AAD after TSZ; format: cell-based; settings: for Dead cell ratio (%): TSZ 24 h, replicates 1-4
Description: The assay of dual staining with CytoCalcein Violet 450 and 7-AAD was performed in a 24-well cell culture plate. Cells were plated in each well and cultured at 37 °C overnight. […] Then use CytoCalcein Violet 450 and 7-AAD to double stain the HT29 cells and observe under the microscope. All images were acquired with an Eclipse Ci-L microscope (Nikon, Japan). The dead cells were measured with Image J software, and the data was analyzed with GraphPad software. The experiment was repeated three times.

[3] = system: TNFα-induced SIRS; experiment: TNFα-induced SIRS mouse model: body temperature loss; format: in vivo, C57BL/6 female mice; settings: for ΔTemperature Average: group average
Description: The body temperatures of the mice were continuously monitored until 6 h after TNFα administration. At 6 h after TNFα injection, four mice in each group were killed at random, and the serums, heart, liver, spleen, lung, and kidney tissues were collected for analysis.

[4] = system: DSS-induced IBD; experiment: DSS-induced IBD mouse model: survival; format: in vivo, C57BL/6 female mice; parameters: key to 1 means death, 0 means survival: 1 means death; 0 means survival
Description: DSS (3% w/v) was administered in drinking water ad libitum for 7 d (from day 0 to day 7). DSS solution was replaced three times on day 2, day 4, and day 6. […] Three mice in each group were killed at random on day 7, and distal colon tissues were collected for analysis. The mice weight and survival rate were recorded daily.

[5] = molecular target: panel of human kinases (kinase named in endpoint) (Homo sapiens, UniProt O43781); experiment: Kinase inhibitory activity profiling of RI-962@10 µM (406 kinases, Eurofins); format: biochemical; settings: 10 µM; read-out: Activity (%), DYRK3(h)
Summary of the method: (§1)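 Radiometric filter-binding kinase assays: enzyme preincubated 15 min with compound in 8 mM MOPS pH 7.0, 0.2 mM EDTA, 250 μM peptide substrate, 10 mM magnesium acetate, 10 μM [γ-33P]-ATP. Reaction started with Mg/ATP, run 40 min at room temperature, stopped with phosphoric acid; 33P incorporation read by scintillation counting. Other kinases by similar protocols.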

[6] = molecular target: panel of human kinases (kinase named in endpoint) (Homo sapiens, UniProt P14616); experiment: as above; format: biochemical; settings: 10 µM; read-out: Activity (%), IRR(h)
Summary of the method: as §1

[7] = molecular target: panel of human kinases (kinase named in endpoint) (Homo sapiens, UniProt Q00534); experiment: as above; format: biochemical; settings: 10 µM; read-out: Activity (%), CDK6/cyclinD3(h)
Summary of the method: as §1

[8] = molecular target: panel of human kinases (kinase named in endpoint) (Homo sapiens, UniProt Q2M2I8); experiment: as above; format: biochemical; settings: 10 µM; read-out: Activity (%), AAK1(h)
Summary of the method: as §1

[9] = molecular target: panel of human kinases (kinase named in endpoint) (Homo sapiens, UniProt Q8TDR2); experiment: as above; format: biochemical; settings: 10 µM; read-out: Activity (%), CLIK1(h)
Summary of the method: as §1

[10] = molecular target: panel of human kinases (kinase named in endpoint) (Homo sapiens, UniProt Q8WU08); experiment: as above; format: biochemical; settings: 10 µM; read-out: Activity (%), STK32A(h)
Summary of the method: as §1

[11] = molecular target: panel of human kinases (kinase named in endpoint) (Homo sapiens, UniProt Q9BYT3); experiment: as above; format: biochemical; settings: 10 µM; read-out: Activity (%), STK33(h)
Summary of the method: as §1

[12] = 0 h after mTNFα, individual mice

Chain of panel of human kinases (kinase named in endpoint) (Homo sapiens, UniProt P14616) (P14616 27-1297): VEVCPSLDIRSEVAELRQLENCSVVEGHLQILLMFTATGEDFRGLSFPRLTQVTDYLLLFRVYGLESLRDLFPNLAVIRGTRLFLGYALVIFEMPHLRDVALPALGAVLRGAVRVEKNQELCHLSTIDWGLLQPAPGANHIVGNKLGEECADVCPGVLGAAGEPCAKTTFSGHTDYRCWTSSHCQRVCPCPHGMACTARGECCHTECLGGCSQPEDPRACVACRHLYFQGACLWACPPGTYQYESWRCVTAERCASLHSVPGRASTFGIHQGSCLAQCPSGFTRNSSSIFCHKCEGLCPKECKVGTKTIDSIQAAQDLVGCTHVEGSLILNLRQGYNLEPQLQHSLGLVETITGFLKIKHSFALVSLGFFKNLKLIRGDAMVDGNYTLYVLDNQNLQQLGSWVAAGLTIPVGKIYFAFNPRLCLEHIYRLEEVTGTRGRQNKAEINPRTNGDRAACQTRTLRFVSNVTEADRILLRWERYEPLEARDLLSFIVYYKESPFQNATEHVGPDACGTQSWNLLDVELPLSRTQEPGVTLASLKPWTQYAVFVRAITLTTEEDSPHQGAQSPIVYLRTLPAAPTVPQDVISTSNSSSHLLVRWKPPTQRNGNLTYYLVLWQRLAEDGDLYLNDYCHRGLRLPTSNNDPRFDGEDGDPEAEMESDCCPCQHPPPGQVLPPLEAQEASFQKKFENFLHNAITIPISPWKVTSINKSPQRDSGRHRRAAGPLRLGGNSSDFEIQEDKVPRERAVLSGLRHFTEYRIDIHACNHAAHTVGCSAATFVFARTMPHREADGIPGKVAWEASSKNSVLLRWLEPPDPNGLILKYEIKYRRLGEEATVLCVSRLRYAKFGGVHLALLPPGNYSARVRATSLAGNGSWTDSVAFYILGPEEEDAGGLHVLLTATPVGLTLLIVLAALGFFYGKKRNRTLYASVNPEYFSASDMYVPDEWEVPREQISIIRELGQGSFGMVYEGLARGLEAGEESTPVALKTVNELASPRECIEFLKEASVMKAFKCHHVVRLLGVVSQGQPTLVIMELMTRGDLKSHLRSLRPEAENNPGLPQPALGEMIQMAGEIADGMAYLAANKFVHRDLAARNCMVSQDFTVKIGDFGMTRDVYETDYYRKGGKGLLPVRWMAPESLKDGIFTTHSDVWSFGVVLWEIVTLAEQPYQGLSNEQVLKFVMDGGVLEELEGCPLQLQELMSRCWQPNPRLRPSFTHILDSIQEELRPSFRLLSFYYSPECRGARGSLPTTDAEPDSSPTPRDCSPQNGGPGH
Chain of panel of human kinases (kinase named in endpoint) (Homo sapiens, UniProt Q2M2I8) (Q2M2I8 whole entry): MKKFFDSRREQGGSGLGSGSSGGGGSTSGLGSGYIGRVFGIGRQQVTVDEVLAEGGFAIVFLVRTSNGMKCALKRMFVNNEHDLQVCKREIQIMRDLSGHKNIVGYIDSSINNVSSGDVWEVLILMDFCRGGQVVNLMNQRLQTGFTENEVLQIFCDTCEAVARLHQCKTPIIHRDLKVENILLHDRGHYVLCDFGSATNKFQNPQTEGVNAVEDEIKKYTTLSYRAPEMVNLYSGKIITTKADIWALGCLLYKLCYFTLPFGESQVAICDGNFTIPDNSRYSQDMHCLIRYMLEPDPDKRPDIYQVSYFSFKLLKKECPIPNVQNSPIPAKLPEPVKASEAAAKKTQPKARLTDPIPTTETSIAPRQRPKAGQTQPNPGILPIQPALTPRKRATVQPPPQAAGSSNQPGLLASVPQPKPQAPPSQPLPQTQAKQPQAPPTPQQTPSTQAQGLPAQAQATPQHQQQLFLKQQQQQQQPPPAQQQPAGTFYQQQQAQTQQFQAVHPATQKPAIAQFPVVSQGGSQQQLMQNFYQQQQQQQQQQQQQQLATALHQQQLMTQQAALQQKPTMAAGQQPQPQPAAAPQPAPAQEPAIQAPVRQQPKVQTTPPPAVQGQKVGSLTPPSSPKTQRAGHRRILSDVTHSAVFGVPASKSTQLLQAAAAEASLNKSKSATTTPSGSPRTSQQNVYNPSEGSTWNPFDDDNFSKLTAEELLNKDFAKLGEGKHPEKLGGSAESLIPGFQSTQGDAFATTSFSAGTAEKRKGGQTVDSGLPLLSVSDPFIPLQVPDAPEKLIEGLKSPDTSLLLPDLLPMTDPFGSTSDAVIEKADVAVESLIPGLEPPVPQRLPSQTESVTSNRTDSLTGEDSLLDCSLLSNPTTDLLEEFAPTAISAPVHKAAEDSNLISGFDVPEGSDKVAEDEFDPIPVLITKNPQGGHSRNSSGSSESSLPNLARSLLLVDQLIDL
Chain of panel of human kinases (kinase named in endpoint) (Homo sapiens, UniProt Q00534) (Q00534 whole entry): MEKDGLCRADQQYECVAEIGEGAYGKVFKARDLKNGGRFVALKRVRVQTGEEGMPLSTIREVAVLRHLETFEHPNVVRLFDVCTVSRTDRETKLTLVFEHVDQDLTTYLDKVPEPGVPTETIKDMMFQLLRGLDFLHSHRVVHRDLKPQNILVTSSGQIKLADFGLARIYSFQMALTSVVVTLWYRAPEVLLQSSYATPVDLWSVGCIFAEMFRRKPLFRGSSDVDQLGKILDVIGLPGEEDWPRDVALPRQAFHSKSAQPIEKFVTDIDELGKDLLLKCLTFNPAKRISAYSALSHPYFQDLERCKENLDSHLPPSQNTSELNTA
Chain of panel of human kinases (kinase named in endpoint) (Homo sapiens, UniProt Q9BYT3) (Q9BYT3 whole entry): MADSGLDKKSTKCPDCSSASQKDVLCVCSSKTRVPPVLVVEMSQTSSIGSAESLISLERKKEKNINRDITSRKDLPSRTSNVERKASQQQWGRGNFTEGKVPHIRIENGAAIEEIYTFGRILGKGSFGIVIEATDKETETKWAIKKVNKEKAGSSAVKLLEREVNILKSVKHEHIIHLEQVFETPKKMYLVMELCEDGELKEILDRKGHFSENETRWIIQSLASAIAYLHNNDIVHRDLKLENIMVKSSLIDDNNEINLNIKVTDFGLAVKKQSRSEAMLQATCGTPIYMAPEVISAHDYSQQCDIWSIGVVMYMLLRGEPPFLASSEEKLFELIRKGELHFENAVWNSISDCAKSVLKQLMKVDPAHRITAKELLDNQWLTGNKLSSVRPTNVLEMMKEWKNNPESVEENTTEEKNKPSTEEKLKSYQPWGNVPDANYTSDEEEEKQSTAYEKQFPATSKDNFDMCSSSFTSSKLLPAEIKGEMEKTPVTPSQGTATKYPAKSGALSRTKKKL
Chain of panel of human kinases (kinase named in endpoint) (Homo sapiens, UniProt Q8TDR2) (Q8TDR2 whole entry): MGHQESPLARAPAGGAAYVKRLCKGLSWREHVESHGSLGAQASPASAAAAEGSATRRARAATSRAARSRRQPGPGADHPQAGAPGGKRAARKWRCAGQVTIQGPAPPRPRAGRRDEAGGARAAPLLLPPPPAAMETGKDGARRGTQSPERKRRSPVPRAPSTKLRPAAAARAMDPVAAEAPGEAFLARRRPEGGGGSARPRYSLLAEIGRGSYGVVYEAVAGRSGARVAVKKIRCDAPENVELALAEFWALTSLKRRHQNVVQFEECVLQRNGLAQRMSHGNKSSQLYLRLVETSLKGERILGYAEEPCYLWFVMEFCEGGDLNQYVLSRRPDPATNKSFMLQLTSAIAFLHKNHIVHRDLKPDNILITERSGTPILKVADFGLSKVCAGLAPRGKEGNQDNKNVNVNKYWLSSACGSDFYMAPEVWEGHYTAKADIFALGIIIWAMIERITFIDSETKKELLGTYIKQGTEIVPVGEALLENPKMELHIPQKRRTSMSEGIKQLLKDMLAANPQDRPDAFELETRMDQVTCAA
Chain of panel of human kinases (kinase named in endpoint) (Homo sapiens, UniProt Q8WU08) (Q8WU08 whole entry): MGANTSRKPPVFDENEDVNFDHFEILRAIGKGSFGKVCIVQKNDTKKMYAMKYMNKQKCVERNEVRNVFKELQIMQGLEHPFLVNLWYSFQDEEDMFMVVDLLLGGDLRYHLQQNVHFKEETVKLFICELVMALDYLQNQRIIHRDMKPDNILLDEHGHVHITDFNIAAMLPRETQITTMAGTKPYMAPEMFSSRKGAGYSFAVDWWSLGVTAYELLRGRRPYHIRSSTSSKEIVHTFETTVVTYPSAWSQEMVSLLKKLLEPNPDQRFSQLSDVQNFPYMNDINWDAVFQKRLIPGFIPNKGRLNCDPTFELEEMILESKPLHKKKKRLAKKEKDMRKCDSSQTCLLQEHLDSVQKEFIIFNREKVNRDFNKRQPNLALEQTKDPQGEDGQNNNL
Chain of panel of human kinases (kinase named in endpoint) (Homo sapiens, UniProt O43781) (O43781 whole entry): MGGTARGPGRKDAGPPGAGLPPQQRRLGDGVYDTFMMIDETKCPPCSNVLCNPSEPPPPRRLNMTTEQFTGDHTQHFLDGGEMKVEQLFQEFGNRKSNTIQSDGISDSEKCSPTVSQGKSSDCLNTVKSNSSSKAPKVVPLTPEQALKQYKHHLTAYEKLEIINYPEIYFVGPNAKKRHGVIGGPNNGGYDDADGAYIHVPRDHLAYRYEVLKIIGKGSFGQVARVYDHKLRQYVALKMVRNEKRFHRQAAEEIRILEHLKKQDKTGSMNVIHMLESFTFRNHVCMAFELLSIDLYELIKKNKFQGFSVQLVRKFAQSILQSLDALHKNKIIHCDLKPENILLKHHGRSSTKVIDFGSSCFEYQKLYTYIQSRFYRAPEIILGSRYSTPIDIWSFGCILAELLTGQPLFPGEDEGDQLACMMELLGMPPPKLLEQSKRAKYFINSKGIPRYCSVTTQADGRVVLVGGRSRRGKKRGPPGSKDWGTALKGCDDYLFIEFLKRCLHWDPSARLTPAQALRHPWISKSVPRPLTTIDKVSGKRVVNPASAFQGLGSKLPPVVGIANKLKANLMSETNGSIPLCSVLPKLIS

CC(C)C(=O)Nc1nc2cc(-c3ccc4c(c3)c(C(=O)NC(C)c3ccccc3)cn4C)ccn2n1 (stereo not drawn) [RI-962]
inhibition at 0.000152416 µM ([1]; 0.152416 nM): -7.04% | inhibition at 0.000457247 µM ([1]; 0.457247 nM): -2.09% | inhibition at 0.00137174 µM ([1]; 1.371742 nM): 5.59% | inhibition at 0.00411523 µM ([1]; 4.115226 nM): 34.1% | inhibition at 0.0123457 µM ([1]; 12.345679 nM): 80% | inhibition at 0.037037 µM ([1]; 37.037037 nM): 94% | inhibition at 0.111111 µM ([1]; 111.111111 nM): 95.3% | inhibition at 0.333333 µM ([1]; 333.333333 nM): 96.3% | inhibition at 1 µM ([1]; 1000.000000 nM): 98.1% | inhibition at 3 µM ([1]; 3000.000000 nM): 99.3% | IC50 ([1]; ADP-Glo assay): 5.9 nM | Dead cell ratio (%) ([2]; 3 nM): 15.55% and 9.32% and 10.06% and 11.13% | Dead cell ratio (%) ([2]; 10 nM, listed as RI-963): 9.02% and 6.38% and 5.61% and 6.01% | TSZ-induced necroptosis, dual staining ([2]; HT29, 24 h): inhibited TSZ-induced necroptosis and improved cell survival in a concentration-dependent manner | ΔTemperature Average ([3]; 0 h after mTNFα): 0 °C | Temperature [3, 12]: 36.3 °C (4×) and 36.5 °C (3×) and 36.2 °C (5×) and 36.6 °C (2×) | ΔTemperature [3, 12]: 0 °C | TNFα-induced temperature loss ([3]; 40 mg/kg i.p.): remarkably reduced | ΔTemperature Average ([3]; 1 h after mTNFα): -0.06429 °C | Temperature ([3]; 1 h after mTNFα, individual mice): 36.3 °C (5×) and 36.2 °C (5×) and 36.1 °C and 36.5 °C (2×) and 36.4 °C | ΔTemperature Average ([3]; 2 h after mTNFα): 0.05 °C | Temperature ([3]; 2 h after mTNFα, individual mice): 36.3 °C (7×) and 36.4 °C and 36.5 °C (5×) and 36.6 °C | ΔTemperature Average ([3]; 3 h after mTNFα): 0.01429 °C | Temperature ([3]; 3 h after mTNFα, individual mice): 36.3 °C (6×) and 36.4 °C (4×) and 36.5 °C (3×) and 36.2 °C | ΔTemperature Average ([3]; 4 h after mTNFα): 0.007143 °C | Temperature ([3]; 4 h after mTNFα, individual mice): 36.2 °C (2×) and 36.5 °C (4×) and 36.4 °C (2×) and 36.3 °C (6×) | ΔTemperature Average ([3]; 5 h after mTNFα): -0.02143 °C | Temperature ([3]; 5 h after mTNFα, individual mice): 36.3 °C (7×) and 36.4 °C (3×) and 36.1 °C and 36.5 °C (2×) and 36.2 °C | ΔTemperature Average ([3]; 6 h after mTNFα): -0.1571 °C | Temperature ([3]; 6 h after mTNFα, individual mice): 36.3 °C (8×) and 36.4 °C and 35.9 °C (3×) and 36 °C and 36.2 °C | survival rate ([4]; 40 mg/kg i.p. once a day for 10 d, 3% DSS 7 d): 100% | 1 means death, 0 means survival ([4]; Figure 9f, individual mice, time 14): 0 | activity at 10 µM [5]: 83% | activity at 10 µM [6]: 100% | activity at 10 µM [7]: 92% | activity at 10 µM [8]: 106% | activity at 10 µM [9]: 132% | activity at 10 µM [10]: 113% | activity at 10 µM [11]: 85%
